# Where two headings read alike, the source gives them in different places.
# How the values were obtained:
# Fusarium graminearum [1] = assay type: in vivo; conditions: for % FHB Control* / FHB Area / FHB Area (% of Control) / Observed % FHB Efficacy: spring wheat; for % FHB Control*: Group A, GS 59, 100 gai/ha, relative to inoculated untreated check; for FHB Area / FHB Area (% of Control) / Observed % FHB Efficacy: Group B
# Fusarium graminearum [2] = assay type: in vivo; conditions: for % DON Reduction: spring wheat, Group A, GS 59, 100 gai/ha, relative to inoculated untreated check; for DON Levels (% of Control) / DON Levels (ppm) / Observed % DON Efficacy: harvested spring wheat grain, Group B
# Fusarium verticillioides = conditions: for F. verticilliodes disease severity (in words): safeners alone at 100 gai/ha
# Method: Corn seeds of the Garst hybrid 86C73-3000GT were planted and grown in the greenhouse at 22° C., 12 hours of light/12 hours of dark using an experiment based on a randomized complete block (RCB) design with ten replicates.
# Safeners tested were: N-(2-methoxybenzoyl)-4-[(methylaminocarbonyl)amino]benzenesulfonamide, Cyprosulfamide, and Isoxadifen, alone and in combination with Prothioconazole fungicide, were applied at the beginning of tasselling stage (GS 51-55) at rates of 100 gai/ha. Prothioconazole was tested alone at rates of 50, 100, and 200 gai/ha. Prothioconazole was tested in combination with safeners at 100 gai/ha. An additional treatment of Prothioconazole at 50 gai/ha+Isoxadifen at 100 gai/ha was included. All treatments were applied a water volume of 220 L/ha using a track sprayer. The adjuvant X-77 was included in each treatment of maize at a rate of 0.125% v/v. Untreated non-innoculated and inoculated control treatments were included within the treatment list.
# Maize was inoculated with Fusarium verticillioides at flowering/silking stage (GS 61-65) by spraying conidia of F. verticillioides on the emerged silk at 1.0×10^6 conidia/mL. Treated plants where then incubated in the dark at 22° C. for 3 days in the dark at 100% R.H., followed by 6 days at 65% R.H. at 12 hour light/dark intervals at 22° C.
# Maize was harvested at maturity, the weight of corn seeds per ear was recorded. Fusarium disease severity per maize ear was determined by plating a ten seeds per ear on Fusarium selective agar media. Seeds were surface sterilized with 5% sodium hypochloride for 1 minute followed by washing with sterile water for 1 minute, prior to plating on selective media. After plating, seeds were incubated in the dark at 15° C. for 10 days.
Compound,% FHB Control* (Fusarium graminearum [1]) [%],% DON Reduction (Fusarium graminearum [2]) [%],F. verticilliodes disease severity (in words) (Fusarium verticillioides; maize),"FHB Area (Fusarium graminearum [1]; GS 65/69, 50 gai/ha) [%]","FHB Area (% of Control) (Fusarium graminearum [1]; GS 65/69, 50 gai/ha) [%]","Observed % FHB Efficacy (Fusarium graminearum [1]; GS 65/69, 50 gai/ha) [%]","FHB Area (Fusarium graminearum [1]; GS 65/69, 100 gai/ha) [%]","FHB Area (% of Control) (Fusarium graminearum [1]; GS 65/69, 100 gai/ha) [%]","Observed % FHB Efficacy (Fusarium graminearum [1]; GS 65/69, 100 gai/ha) [%]","FHB Area (Fusarium graminearum [1]; GS 65/69, 200 gai/ha) [%]","FHB Area (% of Control) (Fusarium graminearum [1]; GS 65/69, 200 gai/ha) [%]","Observed % FHB Efficacy (Fusarium graminearum [1]; GS 65/69, 200 gai/ha) [%]","DON Levels (% of Control) (Fusarium graminearum [2]; GS 65/69, 50 gai/ha) [%]","DON Levels (ppm) (Fusarium graminearum [2]; GS 65/69, 50 gai/ha)","Observed % DON Efficacy (Fusarium graminearum [2]; GS 65/69, 50 gai/ha) [%]","DON Levels (% of Control) (Fusarium graminearum [2]; GS 65/69, 100 gai/ha) [%]","DON Levels (ppm) (Fusarium graminearum [2]; GS 65/69, 100 gai/ha)","Observed % DON Efficacy (Fusarium graminearum [2]; GS 65/69, 100 gai/ha) [%]","DON Levels (% of Control) (Fusarium graminearum [2]; GS 65/69, 200 gai/ha) [%]","DON Levels (ppm) (Fusarium graminearum [2]; GS 65/69, 200 gai/ha)",other results
CNC(=O)Nc1ccc(S(=O)(=O)NC(=O)c2ccccc2OC)cc1,7,0,greatly reduced,–,–,–,–,–,–,–,–,–,–,–,–,–,–,–,–,–,–
"CON(C(=O)c1cn(C)nc1C(F)F)C(C)Cc1c(Cl)cc(Cl)cc1Cl (centres unmarked) [3-difluoromethyl-1-methyl-1H-pyrazole-4-carboxylic acid methoxy-[1-methyl-2-(2,4,6-trichlorophenyl)-ethyl]-amide]",–,–,–,8.3,13.7,86.3,7.5,12.4,87.6,7,11.5,88.5,25.9,7.084,74.1,16.1,4.388,83.9,11.7,3.187,"Observed % DON Efficacy (Fusarium graminearum [2]; GS 65/69, 200 gai/ha): 88.3%"
"CCCCCC(C)OC(=O)COc1ccc(Cl)c2cccnc12 (centres unmarked) [Cloqunitocet, 1-methylhexyl[(5-chloro-8-quinolinyl)oxy]acetate]",1,9,–,–,–,–,–,–,–,–,–,–,–,–,–,–,–,–,–,–,–
"O=C(O)C1=NOC(c2ccccc2)(c2ccccc2)C1 [Isoxadifen, 4,5-dihydro-5,5-diphenyl-3-isoxazolecarboxylic acid]",0,17,greatly reduced,–,–,–,81.3,133.9,0.0,–,–,–,–,–,–,106.6,29.098,0.0,–,–,effectiveness of treatment for wheat (in words) (Fusarium graminearum [1]; wheat): Particularly effective; effectiveness of treatment for maize (in words) (Fusarium verticillioides; maize): Particularly effective
Prothioconazole,–,–,–,28.1,46.3,53.7,57.5,94.7,5.3,7.3,12.0,88.0,37.6,10.274,62.4,38.3,10.456,61.7,15.8,4.322,"Observed % DON Efficacy (Fusarium graminearum [2]; GS 65/69, 200 gai/ha): 84.2%; Fusarium verticilliodes disease severity per maize ear (in words) (Fusarium verticillioides; treated versus untreated control maize plants): reduced disease severity"
